The nature of data set [1]: Cytotoxicity against Balb/c mouse BMDC assessed as cell viability at 10 uM incubated for 20 hrs by MTT assay (reference value: 100 +/-0.6%). Format: toxicity, cell-based. Conditions: BMDC (bone marrow-derived dendritic cells), read-out: Activity.
Data set [2] deals with BMDC. Kind of data set: Vaccine adjuvant activity in Balb/c mouse BMDC assessed as increase in IL-12 production at 10 uM incubated for 20 hrs by ELISA (reference value: 1.35 +/-0.1 ng/ml). Format: functional.
For another data set, the system named is THP-1. Kind of data set: Vaccine adjuvant activity in human THP-1 cells expressing CD63-Turbo-luciferase and CD9-Emerald green fluorescent protein reporter assessed as extracellular vesicle release by measuring reporter activation at 10 uM incubated for 48 hrs by TurboLuc luciferase based chemiluminescence assay (reference value: 0%). Format: functional.

Data set [3] relates to BMDC. Kind of data set: Vaccine adjuvant activity in Balb/c mouse BMDC assessed as induction of Ca2+ influx at 10 uM by Fura-2/8-AM dye based fluorescence analysis (reference value: 0%). Format: functional.

In the case of `CCOC(=O)c1c(NS(=O)(=O)c2cccc3nc(C)[nH]c23)sc(C)c1C`, the viability at 20 h, 10 µM in data set [1] is 108%. The Activity in the data set with BMDC [2] is 1.42 ng/mL; in the data set on THP-1, 3.4%; with BMDC [3] it was -13.1%.
The like results for `CCCOC(=O)c1c(NS(=O)(=O)c2cccc3nsnc23)sc(C)c1C` were, in that order, 140%, 3.5 ng/mL, 156.3% and 147.4%.
The like results for `CCOC(=O)c1c(NS(=O)(=O)c2cccc(N)c2N)sc(C)c1C` were, in that order, 107%, 1.39 ng/mL, 2.4% and -6.8%.
The like results for `CCOC(=O)c1c(NS(=O)(=O)c2cccc3nsnc23)sc2ccccc12` were, in that order, 99.1%, 1.11 ng/mL, 98.3% and 97%.
For `CCOC(=O)c1c(NS(=O)(=O)c2ccc(Br)c3nsnc23)sc(C)c1C`, in data set [1], the viability at 20 h, 10 µM was 96.3%. Besides, the Activity in the data set with BMDC [2] came to 1.9 ng/mL; in the data set with THP-1 it was 70.3%; in the data set with BMDC [3], 73.6%.
The like results for `CCOC(=O)c1c(NS(=O)(=O)c2cccc3nsnc23)sc2c1CCN(C(=O)OC(C)(C)C)C2` were, in that order, 104%, 2.27 ng/mL, 100.4% and 79.2%.
The like results for `CCNC(=O)c1c(NS(=O)(=O)c2cccc3nsnc23)sc(C)c1C` were, in that order, 100%, 1.7 ng/mL, -0.6% and -28.3%.
For `Cc1sc(NS(=O)(=O)c2cccc3nsnc23)c(C(=O)OCCCCCNC(=O)OC(C)(C)C)c1C`, the viability at 20 h, 10 µM in data set [1] came to 183%. Moreover, the Activity in the data set with BMDC [2] worked out at 4.14 ng/mL; in the data set with THP-1, 111.5%; with BMDC [3], 103.9%.
The like results for `CCOC(=O)c1c(NS(=O)(=O)c2cccc3nsnc23)sc(C)c1CC` were, in that order, 100%, 2.27 ng/mL, 112% and 117.6%.
The like results for `CCOC(=O)c1c(C)cccc1NS(=O)(=O)c1cccc2nsnc12` were, in that order, 88.8%, 1.14 ng/mL, 1% and -14.2%.
The like results for `Cc1sc(NS(=O)(=O)c2cccc3nsnc23)c(C(=O)Oc2ccccc2)c1C` were, in that order, 107%, 1.58 ng/mL, 39.8% and 85.3%.
With `CCOC(=O)c1sc(C)c(C)c1NS(=O)(=O)c1cccc2nsnc12`, the viability at 20 h, 10 µM in data set [1] is 130%. The Activity amounted to 1.67 ng/mL in the data set on BMDC [2], 154.1% in the data set with THP-1 and 74.2% in the data set with BMDC [3].
The like results for `CCOC(=O)c1c(NS(=O)(=O)c2cccc3nsnc23)sc(-c2ccoc2)c1C` were, in that order, 82.8%, 1.18 ng/mL, 114.4% and 94.7%.
The like results for `CCOC(=O)c1c(NS(=O)(=O)c2ccc(Br)c3ccncc23)sc(C)c1C` were, in that order, 82.7%, 1.12 ng/mL, 16.1% and -9.4%.
The like results for `CCOC(=O)c1c(C)csc1NS(=O)(=O)c1cccc2nsnc12` were, in that order, 100%, 1.12 ng/mL, 99% and 76.7%.
As to `CCOC(=O)c1c(NS(=O)(=O)c2cccc3nsnc23)sc(Br)c1C`, the viability at 20 h, 10 µM in data set [1] was 104%. Moreover, the Activity with BMDC [2] was determined as 1.03 ng/mL; in the data set with THP-1, 81.1%; with BMDC [3], 102.9%.
In the case of `CCOC(=O)c1c(NS(=O)(=O)c2cccc3nonc23)sc(C)c1C`, the viability at 20 h, 10 µM in data set [1] came out at 105%. Besides, the Activity in the data set on BMDC [2] was 1.47 ng/mL; with THP-1, 4.7%; with BMDC [3], -12.5%.
In the case of `CCOC(=O)c1c(NS(=O)(=O)c2cccc3nc[nH]c23)sc(C)c1C`, the viability at 20 h, 10 µM in data set [1] was found to be 111%. Besides, the Activity in the data set on BMDC [2] is 1.51 ng/mL; in the data set with THP-1, 2%; in the data set with BMDC [3] it was -14.2%.
In the case of `CCOC(=O)c1c(NS(=O)(=O)c2cccc3c2NCCN3)sc(C)c1C`, in data set [1], the viability at 20 h, 10 µM stood at 89.3%. In addition, the Activity with BMDC [2] turned out to be 1.06 ng/mL; in the data set with THP-1, 2.7%; with BMDC [3], 2%.
The like results for `CCOC(=O)c1c(NS(=O)(=O)c2cccc3nsnc23)sc2c1CCNC2` were, in that order, 94.8%, 0.72 ng/mL, 0.1% and -35.3%.
The like results for `Cc1sc(NS(=O)(=O)c2cccc3nsnc23)c(C(=O)O)c1C` were, in that order, 105%, 1.43 ng/mL, -1.3% and -31.3%.
The like results for `CCOC(=O)c1c(NS(=O)(=O)c2cccc3nsnc23)sc2c1CCN(CC)C2` were, in that order, 108%, 1.84 ng/mL, 1.3% and -10.8%.
In the case of `CCOC(=O)c1ccsc1NS(=O)(=O)c1cccc2nsnc12`, the viability at 20 h, 10 µM in data set [1] was 72.5%. In addition, the Activity in the data set on BMDC [2] was determined as 0.48 ng/mL; in the data set with THP-1, 60.9%; in the data set on BMDC [3], 58.3%.
As for `CCOC(=O)c1c(NS(=O)(=O)c2cccc3nsnc23)sc(-c2cccnc2)c1C`, the viability at 20 h, 10 µM in data set [1] is 85.5%. Also, the Activity with BMDC [2] stood at 1.05 ng/mL; in the data set with THP-1, 75.3%; in the data set on BMDC [3], 11.8%.
As for `CCc1noc(-c2c(NS(=O)(=O)c3cccc4nsnc34)sc(C)c2C)n1`, the viability at 20 h, 10 µM in data set [1] turned out to be 65.9%. In addition, the Activity in the data set on BMDC [2] is 1.71 ng/mL; in the data set on THP-1 it was 0.4%; in the data set with BMDC [3], -3.1%.
The like results for `CCOC(=O)c1c(NS(=O)(=O)c2cccc3cccnc23)sc(C)c1C` were, in that order, 110%, 2 ng/mL, 60.4% and 99.7%.
The like results for `Cc1sc(NS(=O)(=O)c2cccc3nsnc23)c(C(=O)OCCCCCN)c1C` were, in that order, 103%, 1.43 ng/mL, 0.7% and -2.6%.
The like results for `CCCCCCOC(=O)c1c(NS(=O)(=O)c2cccc3nsnc23)sc(C)c1C` were, in that order, 106%, 3.44 ng/mL, 185.3% and 245%.
In the case of `Cc1sc(NS(=O)(=O)c2cccc3nsnc23)c(C(=O)OCCC(C)C)c1C`, in data set [1], the viability at 20 h, 10 µM is 81.2%. Further, the Activity came to 2.87 ng/mL in the data set on BMDC [2], 141.6% with THP-1 and 262.4% with BMDC [3].
The like results for `CCOC(=O)c1ncsc1NS(=O)(=O)c1cccc2nsnc12` were, in that order, 91.3%, 1.04 ng/mL, 1.3% and -6.4%.
`CCOC(=O)c1cc(C)ccc1NS(=O)(=O)c1cccc2nsnc12`: the viability at 20 h, 10 µM in data set [1] was 60.1%. The Activity in the data set with BMDC [2] is 1.22 ng/mL; in the data set on THP-1 it was 10.8%; in the data set with BMDC [3], -11.5%.
The like results for `CCOC(=O)c1c(NS(=O)(=O)c2cccc3nsnc23)sc(C)c1-c1ccccc1` were, in that order, 94.2%, 1.45 ng/mL, 49.6% and 69.1%.
The like results for `CCOC(=O)c1c(NS(=O)(=O)c2cccc3nsnc23)sc2c1CCC2` were, in that order, 127%, 1.85 ng/mL, 94.9% and 121%.
The like results for `Cc1sc(NS(=O)(=O)c2cccc3nsnc23)c(C(=O)OC(C)C)c1C` were, in that order, 132%, 3 ng/mL, 149.2% and 178.4%.
Take `CCOC(=O)c1c(NS(=O)(=O)c2cccc3ccncc23)sc(C)c1C`: in data set [1], the viability at 20 h, 10 µM was 87.5%. For the same molecule, the Activity amounted to 1.12 ng/mL in the data set with BMDC [2], 3.6% in the data set with THP-1 and 4.1% in the data set on BMDC [3].
With `CCOC(=O)c1c(NS(=O)(=O)c2cccc3ncccc23)sc(C)c1C`, the viability at 20 h, 10 µM in data set [1] was 117%. The Activity in the data set on BMDC [2] is 1.1 ng/mL; with THP-1 it was 0%; in the data set on BMDC [3] it was -13.3%.
The like results for `CCOC(=O)c1nc(C)sc1NS(=O)(=O)c1cccc2nsnc12` were, in that order, 93.3%, 0.92 ng/mL, 1.7% and -7.9%.
The like results for `CCOC(=O)c1c(NS(=O)(=O)c2cccc3nc(O)[nH]c23)sc(C)c1C` were, in that order, 88.1%, 0.59 ng/mL, 0.4% and -14.3%.
The like results for `CCOC(=O)c1cc(C)sc1NS(=O)(=O)c1cccc2nsnc12` were, in that order, 93%, 0.81 ng/mL, 106.9% and 78.5%.

For the origin of these results see ChEMBL document CHEMBL5614396, “Structure-Activity Relationship Studies in Benzothiadiazoles as Novel Vaccine Adjuvants” (J Med Chem, 2024).
